Reference: patent EP0476853B1, “Triphenodioxazine dyes” (ZENECA LIMITED, priority 1990, dated 1992)

Assay: Solubility of the dyebase in aqueous acid solvent systems
Format: physicochemical
Method: The solubility of the product from step (a) was then determined in the following aqueous solvent systems.

Solubility (% w/w) (solvent: 25% formic acid (aqueous)): 5.3 % w/w
Solubility (% w/w) (solvent: 25% lactic acid (aqueous)): 4.8 % w/w
solubility (solvent: 50% aqueous acetic acid (comparison)): 2.52 % w/w
Solubility (% w/w) (solvent: 50% formic acid (aqueous)): 7.5 % w/w
Solubility (% w/w) (solvent: 50% lactic acid (aqueous)): 4.9 % w/w
Solubility (% w/w) (solvent: 85% formic acid (aqueous)): 24.7 % w/w
Solubility (% w/w) (solvent: 88% lactic acid (aqueous)): 4.8 % w/w
SMILES: NCCNc1ccc2c(c1)Oc1c(Cl)c3c(c(Cl)c1=N2)Oc1cc(NCCN)ccc1N=3 [Formula (3)]
